Values after ≈ are worked out from the molar mass of the structure shown.
Experiments:
Assay type in all cases: physicochemical
[1] = Hygroscopicity experiment (DVS); conditions: for hygroscopicity (in words): DVS, 25° C.; for moisture absorbed: humidity increased to 80% RH at 25° C.
Text: The Dynamic Vapor Sorption (DVS) curve was acquired on the DVS Intrinsic of Surface Measurement Systems.
The DVS test results of the crystal form A and the crystal form B-1 were shown in FIG. 26 and FIG. 27, respectively.
The DVS test results of the crystal form C, crystal form D-2, crystal form E, and crystal form F were shown in FIG. 28, FIG. 29, FIG. 30, and FIG. 31.

[2] = Solubility experiment in 0.1M HCl, buffers and water; conditions: for Solubility (mg/mL) 0.1M HCl / Solubility (mg/mL) pH 4.5 / Solubility (mg/mL) pH 6.8 / Solubility (mg/mL) H2O: ambient temperature; for Solubility (mg/mL) pH 4.5: pH 4.5 buffer; for Solubility (mg/mL) pH 6.8: pH 6.8 buffer; for solubility in water compared with the free base (in words) / Solubility (mg/mL) H2O: water
Protocol: The solubilities of the following four kinds of salt and free base sample in 0.1M HCl, pH 4.5 buffer, pH 6.8 buffer, and water were tested at ambient temperature. In the test, the calibration curves of free base and four kinds of salt were plotted. 3 mg of solid samples of free base and four kinds of salt were weighed, respectively, and then 1 ml of the solvent was added, centrifuged after 30 min ultrasound. The supernatant was taken, and injected through the membrane, and the solubility was tested.

[3] = Solid phase stability experiment (sealed at 60° C., HPLC purity); conditions: for solid phase stability (in words): 60° C., at 7 days and 21 days
Protocol: 5 mg of samples were weighed and sealed at 60° C., respectively. Another set of samples were sealed and stored at −20° C. as a control at the same time. All samples were characterized by HPLC at 7 days and 21 days to detect changes in purity.

[4] = Solubility of crystal form I in common solvents; conditions: ambient temperature; for solubility: thermodynamic from solid
Protocol: The solubility of the crystal form I in 11 common solvents at ambient temperature was tested. In the experiment, the crystal form I was formulated into standard solutions of different concentrations using 50% acetonitrile as solvent according to the following table, and injected to the HPLC instrument. The peak area was recorded and the standard curve was plotted, and the curve equation: y=11.30762x, R^2=0.99998, which has a good linear correlation in a range of 4.9 μg/ml˜499 μg/ml was obtained. 10-80 mg of crystal form I was weighed into 0.5-10 ml of different solutions in the following table to prepare a saturated solution, sonicated for 3-5 min, dispersed evenly and then taken out, centrifuged at 12000 rpm for 5 min. The supernatant was drawn and diluted at a certain multiple, injected to the HPLC, the peak area was recorded, the sample concentration was calculated, and the pH of undiluted samples was determined.

In the case of `CS(=O)(=O)C1(c2cc(-c3cnc(N)cc3Cl)nc(N3CCOCC3)n2)CC1` [crystal form B-1], the “hygroscopicity (in words)” value [1] is reported as “slightly hygroscopic”, the “Solubility (mg/mL) 0.1M HCl” value [2] is reported as over 2.488 mg/mL and the “Solubility (mg/mL) pH 4.5” value [2] is reported as 0.026 mg/mL. The “Solubility (mg/mL) pH 6.8” value [2] was 0.012 mg/mL, the “solubility in water compared with the free base (in words)” value [2] was “obviously improved” and the “Solubility (mg/mL) H2O” value [2] was 0.946 mg/mL (≈ 2.31 mM). For the same molecule, the “solid phase stability (in words)” value [3] was “good stability”, the “Purity (%)” value ([3]; 60° C.-0 day) was 99.74% and the “Total impurities (%)” value ([3]; 60° C.-0 day) was 0.26%. For the same molecule, the “Purity (%)” value ([3]; 60° C.-7 days, sealed) was 99.50%, the “Total impurities (%)” value ([3]; 60° C.-7 days, sealed) was 0.50% and the “Purity (%)” value ([3]; 60° C.-21 days, sealed) was 99.74%. The “Total impurities (%)” value ([3]; 60° C.-21 days, sealed) was 0.26%.

In the case of `CS(=O)(=O)C1(c2cc(-c3cnc(N)cc3Cl)nc(N3CCOCC3)n2)CC1` [crystal form D-2], the “hygroscopicity (in words)” value [1] is reported as “almost no hygroscopicity”, the moisture absorbed [1] is reported as 0.14% and the “Solubility (mg/mL) 0.1M HCl” value [2] is reported as 1.195 mg/mL (≈ 2.92 mM). For the same molecule, the “Solubility (mg/mL) pH 4.5” value [2] was 0.031 mg/mL, the “Solubility (mg/mL) pH 6.8” value [2] was 0.013 mg/mL and the “solubility in water compared with the free base (in words)” value [2] was “slightly improved”. The “Solubility (mg/mL) H2O” value [2] was 0.023 mg/mL (≈ 0.0561 mM), the “solid phase stability (in words)” value [3] was “good stability” and the “Purity (%)” value ([3]; 60° C.-0 day) was 98.37%. For the same molecule, the “Total impurities (%)” value ([3]; 60° C.-0 day) was 1.63%, the “Purity (%)” value ([3]; 60° C.-7 days, sealed) was 98.22% and the “Total impurities (%)” value ([3]; 60° C.-7 days, sealed) was 1.78%. For the same molecule, the “Purity (%)” value ([3]; 60° C.-21 days, sealed) was 98.25% and the “Total impurities (%)” value ([3]; 60° C.-21 days, sealed) was 1.75%.

For `CS(=O)(=O)C1(c2cc(-c3cnc(N)cc3Cl)nc(N3CCOCC3)n2)CC1` [crystal form F], the “hygroscopicity (in words)” value [1] was “almost no hygroscopicity” and the moisture absorbed [1] was 0.26%.

For `CS(=O)(=O)C1(c2cc(-c3cnc(N)cc3Cl)nc(N3CCOCC3)n2)CC1` [crystal form A], the “hygroscopicity (in words)” value [1] was “slightly hygroscopic”, the “Solubility (mg/mL) 0.1M HCl” value [2] was over 2.744 mg/mL and the “Solubility (mg/mL) pH 4.5” value [2] was 0.020 mg/mL. For the same molecule, the “Solubility (mg/mL) pH 6.8” value [2] was 0.012 mg/mL, the “solubility in water compared with the free base (in words)” value [2] was “obviously improved” and the “Solubility (mg/mL) H2O” value [2] was 1.063 mg/mL (≈ 2.59 mM). For the same molecule, the “solid phase stability (in words)” value [3] was “good stability”, the “Purity (%)” value ([3]; 60° C.-0 day) was 99.73% and the “Total impurities (%)” value ([3]; 60° C.-0 day) was 0.27%. The “Purity (%)” value ([3]; 60° C.-7 days, sealed) was 99.78%, the “Total impurities (%)” value ([3]; 60° C.-7 days, sealed) was 0.22% and the “Purity (%)” value ([3]; 60° C.-21 days, sealed) was 99.75%. For the same molecule, the “Total impurities (%)” value ([3]; 60° C.-21 days, sealed) was 0.25%.

For `CS(=O)(=O)C1(c2cc(-c3cnc(N)cc3Cl)nc(N3CCOCC3)n2)CC1` [crystal form I, 4-chloro-5-(6-(1-(methylsulfonyl)cyclopropyl)-2-morpholinopyrimidin-4-yl)pyridin-2-amine], the “hygroscopicity (in words)” value [1] was “almost no hygroscopicity”, the water absorbed ([1]; humidity increased to 90% RH at 25° C.) was 0.084% and the “Concentration” value ([4]; 50% acetonitrile) was 10998 µg/mL. For the same molecule, the “Concentration” value ([4]; acetone) was 28464 µg/mL, the “Concentration” value ([4]; acetonitrile) was 13724 µg/mL and the solubility ([4]; aqueous with cosolvent or surfactant or cyclodextrin, 50% acetonitrile) was 11000 µg/mL (≈ 26.8 mM). The “Concentration” value ([4]; ethanol) was 4680 µg/mL, the “Concentration” value ([4]; ethyl acetate) was 12441 µg/mL and the “Concentration” value ([4]; isopropanol) was 1837 µg/mL. For the same molecule, the “Concentration” value ([4]; methanol) was 9459 µg/mL, the “Concentration” value ([4]; methyl tert-butyl ether) was 1044 µg/mL and the solubility ([4]; organic solvent or mixture, acetone) was 28500 µg/mL (≈ 69.4 mM). The solubility ([4]; organic solvent or mixture, acetonitrile) was 13700 µg/mL (≈ 33.5 mM), the solubility ([4]; organic solvent or mixture, ethanol) was over 4680 µg/mL and the solubility ([4]; organic solvent or mixture, ethyl acetate) was 12400 µg/mL (≈ 30.4 mM). For the same molecule, the solubility ([4]; organic solvent or mixture, isopropanol) was over 1840 µg/mL, the solubility ([4]; organic solvent or mixture, methanol) was over 9460 µg/mL and the solubility ([4]; organic solvent or mixture, methyl tert-butyl ether) was over 1040 µg/mL. The solubility ([4]; organic solvent or mixture, tetrahydrofuran) was 78100 µg/mL (≈ 191 mM), the “Concentration” value ([4]; tetrahydrofuran) was 78135 µg/mL and the solubility ([4]; water) was 185 µg/mL (≈ 0.451 mM). The “Concentration” value ([4]; water) was 185 µg/mL.

In the case of `CS(=O)(=O)C1(c2cc(-c3cnc(N)cc3Cl)nc(N3CCOCC3)n2)CC1` [crystal form C], the “hygroscopicity (in words)” value [1] is reported as “almost no hygroscopicity”, the moisture absorbed [1] is reported as 0.17% and the “Solubility (mg/mL) 0.1M HCl” value [2] is reported as 1.875 mg/mL (≈ 4.57 mM). For the same molecule, the “Solubility (mg/mL) pH 4.5” value [2] was 0.027 mg/mL, the “Solubility (mg/mL) pH 6.8” value [2] was 0.010 mg/mL and the “solubility in water compared with the free base (in words)” value [2] was “obviously improved”. The “Solubility (mg/mL) H2O” value [2] was 0.174 mg/mL (≈ 0.424 mM), the “solid phase stability (in words)” value [3] was “good stability” and the “Purity (%)” value ([3]; 60° C.-0 day) was 99.73%. For the same molecule, the “Total impurities (%)” value ([3]; 60° C.-0 day) was 0.27%, the “Purity (%)” value ([3]; 60° C.-7 days, sealed) was 99.74% and the “Total impurities (%)” value ([3]; 60° C.-7 days, sealed) was 0.26%. For the same molecule, the “Purity (%)” value ([3]; 60° C.-21 days, sealed) was 99.75% and the “Total impurities (%)” value ([3]; 60° C.-21 days, sealed) was 0.25%.

For `CS(=O)(=O)C1(c2cc(-c3cnc(N)cc3Cl)nc(N3CCOCC3)n2)CC1` [crystal form E], the “hygroscopicity (in words)” value [1] was “almost no hygroscopicity” and the moisture absorbed [1] was 0.12%.

— patent US10544137B2, “PI3K inhibitor, and pharmaceutically acceptable salt, polycrystalline form, and application thereof” (SHANGHAI HAIYAN PHARMACEUTICAL TECHNOLOGY CO., LTD., priority 2016, dated 2020)
